According to patent US20090053138A1, “Stabilized Aptamers to Platelet Derived Growth Factor and their Use as Oncology Therapeutics” (priority 2002, published 2009):
Where two headings read alike, the source gives them in different places. [invdT] = inverted (3'-3') thymidine

Columns and labels:
[1] = biological target: T1, PDGF BB (Homo sapiens, UniProt P01127); test: 3T3 cell proliferation assay (PDGF-BB induced); assay type: cell-based, rat; design: purchased PeproTech, Rocky Hill, N.J; conditions: for potency compared to ARC127: tyrosine kinase inhibitors
T1 sequence (P01127 82-190 limits assumed): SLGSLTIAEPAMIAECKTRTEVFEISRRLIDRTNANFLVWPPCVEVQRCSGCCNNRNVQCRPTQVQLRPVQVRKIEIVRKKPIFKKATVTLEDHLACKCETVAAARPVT
Experimental: 3T3 cells, a rat fibroblast cell line (ATCC, Manassas, Va.), were plated 3,000 cells/well in a 96 well plate one day prior to the start of the assay in 100 ul DMEM/10% FCS. The following day, cells were washed once with straight DMEM and then 75 ul DMEM/0.8% FCS was added to each well. […] Cells were incubated for 3 days. Following incubation 10 ul MTT (Promega, Madison, Wis.) was added to each well and incubated for an additional 1.5 hours. Media was then removed, 200 ul Isopropanol (2-propanol) was added to each well, cells were re-suspended thoroughly and absorbance at 570 nm was read on a 96 well plate reader.
(§1) 3T3 cells, which are derived from a rat fibroblast cell line (ATCC, Manassas, Va.), were used in a proliferation assay to test potency of modified ARC513 aptamers. 3T3 fibroblast cells have PDGF receptors on their cell-surface and respond to mitogen, e.g., PDGF stimulation by proliferation. The assay was performed as follows: 3T3 cells were plated 3,000 cells/well in a 96 well plate one day prior to the start of the assay in 100 ul DMEM/10% FCS. The following day, cells were washed once with straight DMEM and then 75 ul DMEM/0.8% FCS was added to each well. Then 25 ul of PDGF-BB (PeproTech, Rocky Hill, N.J.) at a 50 ng/ml final concentration was added to each well +/− aptamer condition to be tested. […] The functional PDGF aptamer dilutions usually consisted of 6 points in 2-fold serial dilutions.
(§2) Cells were incubated for 3 days. Following incubation 10 ul MTT (Promega, Madison, Wis.) was added to each well and incubated for an additional 1.5 hours. Media was removed, 200 μl Isopropanol (2-propanol) was added to each well, cells were re-suspended thoroughly and absorbance at 570 nm was read on a 96 well plate reader. The present example depicts the potency comparison of PDGF aptamer ARC: 513 to that of ARC 513 variants.
The 3T3 proliferation assay previously described was used to test potency of all PEG conjugated ARC513 variants described immediately above. The assay was performed as follows: 3T3 cells were plated 3,000 cells/well in a 96 well plate one day prior to the start of the assay in 100 ul DMEM/10% FCS. The following day, cells were washed once with straight DMEM and then 75 ul DMEM/0.8% FCS was added to each well. Then 25 ul of PDGF-BB (PeproTech, Rocky Hill, N.J.) at a 50 ng/ml final concentration was added to each well +/− aptamer condition to be tested. […] The functional PDGF aptamer dilutions usually consisted of 6 points in 2-fold serial dilutions.
as §2, with “ARC513” for “ARC: 513”, “PEGylated ARC513 aptamers.” for “ARC 513 variants.”
as §1, with “3T3” for “3T3 cells, which are derived from a rat fibroblast cell line (ATCC, Manassas, Va.), were used in a proliferation assay to test potency of modified ARC513 aptamers. 3T3”, “100 μl” for “100 ul”
as §2, with “[…]” for “μl”, “reader.” for “reader. The present example depicts the potency comparison of PDGF aptamer ARC: 513 to that of ARC 513 variants.”

[2] = biological target: T1, PDGF BB; test: Competition binding assay, PDGF-BB; design: purchased PeproTech, Rocky Hill, N.J; conditions: Table 2, mean affinity, competitive binding assay; read-out: Affinity
Experimental: Binding reactions were carried out in phosphate-buffered saline (Cellgro, Herndon, Va.) containing 0.2 mg/mL bovine serum albumin (NEB) and 0.02 mg/mL tRNA (Sigma, St. Louis, Mo.). The reactions were equilibrated for a period of 15-30 minutes at room temperature, then filtered through a sandwich of nitrocellulose (Protran membrane, Perkin-Elmer, Boston, Mass.) and nylon (Hybond membrane, Amersham, Piscataway, N.J.) membranes to separate target bound aptamer from free aptamer.
Next, a study was done to determine whether ARC126 cross reacted with PDGF-BB of species other than human. Competition binding assays were set up by dot blot analysis, as previously described, using human, rat, and mouse PDGF-BB (PeproTech, Rocky Hill, N.J.).
The competitive binding assay previously described was used to determine the in vitro binding affinity and selectivity of ARC594 for different PDGF isoforms. Different concentrations of unlabeled, competitor aptamer were titrated in separate reactions against a fixed (<0.1 nM) amount of ^32P-radiolabeled ARC594 in buffer containing a fixed amount (0.1 nM) of the aptamer's cognate target (PDGF-BB; PeproTech). UnPEGylated version of ARC594 was radiolabeled at the 5′ terminus by incubation with γ-^32P-ATP (ICN) and polynucleotide kinase (NEB). Binding reactions were carried out in phosphate-buffered saline (Cellgro) containing 0.2 mg/mL bovine serum albumin (NEB) and 0.02 mg/mL tRNA (Sigma). The reactions were equilibrated for a period of 15-30 minutes at room temperature, then filtered through a sandwich of nitrocellulose (Protran membrane, Perkin-Elmer) and nylon (Hybond membrane, Amersham) membranes to separate target bound aptamer from free aptamer. […] The data was expressed as the ratio of the counts per minute (CPM) of radioactivity due to ^32P-ARC594 bound to PDGF BB on the nitrocellulose membrane (CPMnitrocellulose or CPMnc) over the total CPM (CPMtotal=CPMnitrocellulose+CPMnylon).

[3] = system: LS174T colon cancer xenograft; conditions: Experiment 3
Excerpt: Experimental overview. Human HT-29 or LS174T colon cancer xenotransplants were established in athymic nude mice (Nu/Nu mice, Charles River Labs, Wilmington, Mass.) by injecting mice with 1×10^7 HT29 cells (ATCC, Manassas, Va.), or 2×10^6 LS174T cells (ATCC Manassas, Va.) sub-cutaneously and allowing the tumors to grow for 5 days. On day 5, two dimensional measurements of the established tumors were taken using a digital caliper. Once tumor measurements were taken, the mice were randomized into groups such that the average tumor size was the same in each group. […]
A third experiment (Experiment 3) was designed to test ARC308/irinotecan and GLEEVEC™/irinotecan dosing regimens in a colon cancer xenotransplant model using human colon carcinoma cell line LS174T (ATCC). […] ARC308 was dosed via intraperitoneal delivery at 50 mg/kg once daily, and GLEEVEC™ was dosed at 50 mg/kg once daily, Monday through Friday. ARC308 prevents PDGF-BB from binding the PDGF receptor; this molecule has a 30K PEG attached. […] The results are statistically significant (two tailed students T-test).
An efficacy analysis of three treatment groups in this study is shown in Table 10 in terms of log cell kill and log cell kill net. Log cell kill is the log(base10) of the number of tumor cells before treatment divided by the number of cells after treatment. […] A fourth experiment (Experiment 4) was designed to further test ARC308/irinotecan dosing regimens in a colon cancer xenotransplant model using human colon carcinoma cell line LS174T (ATCC). […]

[4] = Pharmacokinetics of ARC126 5′ PEG conjugates in mice; conditions: IV administration at 10 mg/kg in mice
Excerpt: The pharmacokinetic (PK) data shown in FIG. 12A was subjected to non-compartmental analysis (NCA) using the industry-standard software package WinNonLin™ v.4.0 (Pharsight Corp., Mountain View, Calif.). […] The pharmacokinetic (PK) data shown in FIG. 12B was subjected to noncompartmental analysis (NCA) using the industry-standard software package WinNonLin™ v.4.0 (Pharsight Corp., Mountain View, Calif.).
The pharmacokinetic (PK) data shown in FIG. 12B was subjected to noncompartmental analysis (NCA) using the industry-standard software package WinNonLin™ v.4.0 (Pharsight Corp., Mountain View, Calif.).

[5] = Table 2, mean activity, 3T3 proliferation assay, read-out: Activity

SEQ ID NO: 42-PEG-SEQ ID NO: 43-PEG-SEQ ID NO: 44 (chain 1 CAGGCTACG; chain 2 CGTAGAGCATCA; chain 3 TGATCCTG; DNA, backbone not given here; PEG-6 spacers join the three pieces) [ARC299]
binding affinity and cell-based assay activity (in words) ([1]; in vitro biochemical binding and cell-based proliferation assays): significantly reduced activity/potency

5′-(SEQ ID NO: 69)-PEG-(SEQ ID NO: 40)-PEG-(SEQ ID NO: 70)-[3′T]-3′ (chain 1 CCCAGGCTACG; chain 2 CGTAGAGCAUCA; chain 3 TGATCCTGGG; piece 1: 2'-O-methyl at 11, other sugars and backbone not given here; piece 2: 2'-O-methyl at 5, 7, 10, 11, 12, other sugars and backbone not given here; piece 3: 2'-O-methyl at 5, 8, 9, 10, 3' [invdT], other sugars and backbone not given here; pieces joined by PEG spacers) [ARC513]
IC50 ([1]; PDGF-BB 50 ng/ml, read-out: IC50 values routinely displayed): < 10 nM

Cc1cc2ncc(-c3ccccc3)nc2cc1C [AG 1295, reference compound]
potency compared to ARC127 [1]: much worse potencies

124 (ACCATGATCCTGTG; 3' inverted dT, further chemistry not given here) [compound 124]
IC50 [1, 5]: 3.45 nM
IC50 ([1]; Table 6, PDGF-BB 50 ng/ml, nM, read-out: Mean IC50): 20.7 nM
Kd [2]: 0.21 nM

Cc1cc2ncc(-c3ccc(O)c(O)c3)nc2cc1C [AG 1433, reference compound]
unspecific toxic effects, concentration from which visible ([1]; signal lower than no treatment): ≥ 300 nM
potency compared to ARC127 [1]: much worse potencies

5′-(SEQ ID NO: 36)-PEG-(SEQ ID NO: 37)-PEG-(SEQ ID NO: 38)-[3′]-3′ (chain 1 CAGGCTACG; chain 2 CGTAGAGCATCA; chain 3 TGATCCTG; piece 1: 2'-O-methyl at 9, other sugars and backbone not given here; piece 2: 2'-O-methyl at 5, 7, 12, other sugars and backbone not given here; piece 3: 2'-O-methyl at 8, other sugars and backbone not given here; further chemistry not fully specified) [ARC276]
IC50 [1, 5]: 18 nM
Kd [2]: 0.23 nM

CCc1c2c(nc3ccc(OC(=O)N4CCC(N5CCCCC5)CC4)cc13)-c1cc3c(c(=O)n1C2)COC(=O)[C@]3(O)CC [Irinotecan, irinotecan, reference compound]
Activity Assessment [3]: Active
Log cell kill ([3]; target size 1000 mm^3, ARC308 50 mg/kg, irinotecan 150 mg/kg, combination extrapolated): 1.95
Log cell kill net ([3]; treatment duration 18 days, combination extrapolated): 0.28

5′-[20K PEG]-(SEQ ID NO:1)-HEG-(SEQ ID NO:2)-HEG-(SEQ ID NO:3)-3′-dT-3′ (chain 1 CAGGCUACG; chain 2 CGTAGAGCAUCA; chain 3 TGATCCUG; 5′ 20 kDa PEG; HEG spacers; 3′ dT cap; synthetic aptamer; modified_base (6)..(6) uridine is 2′-fluoro; modified_base (8)..(8) cytidine is 2′-fluoro; modified_base (9)..(9) gm; modified_base (5)..(5) gm; modified_base (7)..(7) gm; modified_base (10)..(10) uridine is 2′-fluoro; modified_base (11)..(11) cytidine is 2′-fluoro; modified_base (12)..(12) adenosine is 2′-O-Methyl; modified_base (5)..(6) cytidine is 2′-fluoro; modified_base (7)..(7) uridine is 2′-fluoro; modified_base (8)..(8) gm) [ARC240]
Cmax [4]: 34.3 µM
MRT [4]: 1.16 h
Vs [4]: 0.0003 L/kg
t1/2 [4]: 0.94 h
